Among the data in ChEMBL document CHEMBL1150085, “Gummiferol, a cytotoxic polyacetylene from the leaves of Adenia gummifera” (1995) are EC50 values, retold here.

SMILES strings stand for the structures. Values after ≈ are worked out from the molar mass of the structure shown.

Test [1] can be described thus: Cytotoxicity against human U373 cells. It is filed as functional, U-373MG ATCC. To be noted: U373 MG, read-out: ED50 (the source's name).
Test [2] deals with KB. The experiment in a line: Cytotoxicity against human vinblastine-positive KB cells. It is filed as functional. Conditions: read-out: ED50 (the source's name).
In the next test the test system is Col2. Put plainly: Cytotoxicity against human Col2 cells. It is filed as functional. To be noted: read-out: ED50 (the source's name).
Another test has as its system ZR-75-1. The experiment in a line: Cytotoxicity against human ZR-75-1 cells. Conditions: read-out: ED50 (the source's name). The format is functional.
The next test relates to P388. Put plainly: Cytotoxicity against mouse P388 cells. The format is functional. Conditions: read-out: ED50 (the source's name).
The test system of another test is LNCaP. Put plainly: Cytotoxicity against human LNCAP cells. The format is functional. To be noted: read-out: ED50 (the source's name).
For test [3], the system named is KB. The experiment in a line: Cytotoxicity against human vinblastine-negative KB cells. The format is functional. Conditions: read-out: ED50 (the source's name).
For another test, the system named is A-431. Put plainly: Cytotoxicity against human A431 cells. The format is functional. Conditions: read-out: ED50 (the source's name).
Test [4] relates to KB. The experiment in a line: Cytotoxicity against human KB cells. The format is functional. Conditions: read-out: ED50 (the source's name).
For another test, the system named is SK-MEL-2. Put plainly: Cytotoxicity against human SK-MEL-2 cells. The format is functional. Conditions: read-out: ED50 (the source's name).
For the next test, the system named is HT. The experiment in a line: Cytotoxicity against human HT cells. It is filed as functional. Conditions: read-out: ED50 (the source's name).
Test [5] is described as follows: Cytotoxicity against human BC1 cells. The format is functional. To be noted: read-out: ED50 (the source's name).
The test system of a further test is Lu1. Put plainly: Cytotoxicity against human Lu1 cells. The format is functional. To be noted: read-out: ED50 (the source's name).

As to `CC(=O)OC/C=C/C1OC1C1OC1C#CC#CC#CCO` (stereo not drawn) [GUMMIFEROL], the EC50 was determined as 0.05 µg/mL (≈ 0.175 µM) in test [1]; 0.3 µg/mL (≈ 1.05 µM) in the test with KB [2]; 0.6 µg/mL (≈ 2.1 µM) with Col2; 0.2 µg/mL (≈ 0.699 µM) with ZR-75-1; 0.03 µg/mL (≈ 0.105 µM) with P388; 0.2 µg/mL (≈ 0.699 µM) in the test with LNCaP. Also, the EC50 is 0.4 µg/mL (≈ 1.4 µM) with KB [3]; 0.5 µg/mL (≈ 1.75 µM) in the test with A-431; 0.3 µg/mL (≈ 1.05 µM) with KB [4]; 1.3 µg/mL (≈ 4.54 µM) in the test with SK-MEL-2; 0.1 µg/mL (≈ 0.349 µM) in the test on HT; 0.2 µg/mL (≈ 0.699 µM) in test [5]. Moreover, the EC50 in the test with Lu1 was determined as 0.9 µg/mL (≈ 3.14 µM).
